Tested on: 362531-283-R-J2-PDC complex spheroid viability
Assay: Anticancer human tumor 362531-283-R-J2-PDC patient-derived colon adenocarcinoma cell line growth inhibition [RAS]
Settings: for IC50: curve of first compound; for viability, T/C: stronger effect = lower value
Description: RAS pathway inhibitors in Combinations in Complex Spheroids
A high-throughput screen of multi-cell type tumor spheroids was designed to identify active combinations of RAS pathway inhibitors and targeted small molecules. Complex spheroids include a stromal component modeled by human endothelial cells (HUVEC) and fibroblasts modeled by human mesenchymal stem cells (MSCs). The concentration ranges selected for each drug and investigational agent were based upon clinically achievable concentrations if the clinical Cmax of the agent was known.
Compounds. The drugs and investigational agents: abemaciclib (NSC768073), cobimetinib (NSC768068), divarasib (GDC6063, NSC841802), docetaxel (NSC628503), GDC-1971 (RLY-1971, NSC841576), gemcitabine (NSC613327), inavolisib (NSC800729), ipatasertib (NSC767898), KB-0742 (NSC834161), MRTX-1133 (NSC836407), osimertinib (NSC779217), RMC-4630 (NSC839698), RMC-6236 (NSC851965), RMC-6291 (NSC852671), Ro-3306 (NSC812927), sapanisertib (NSC764658), SN-38 (NSC673596), staurosporine (NSC755774), SY5609 (NSC837396), and tovorafenib (DAY101, NSC766906), were obtained from the National Cancer Institute (NCI) Developmental Therapeutics Program Chemical Repository. The FDA-approved anticancer drug set is available from the NCI Developmental Therapeutics Program. […] The stock solutions were prepared in dimethyl sulfoxide (DMSO, Sigma-Aldrich, St. Louis, MO, cat. D2650) at 800-fold the tested concentration and stored at -70 degrees C prior to their use. All drugs and investigational agents were tested over a range starting from a high concentration at or near the clinical Cmax and decreasing in half-log increments. If the clinical Cmax for an agent had not been determined, the highest concentration tested was 10 microM.
Cell Culture. All cells were maintained in an incubator at 37 degrees C and 5% CO2 with 95% humidity. The PDC lines were cultured according to standard operating procedures established by the NCI PDMR. All PDCs were thawed and cultured in Matrigel-coated flasks prepared with a working solution of 1X Ham's F-12 nutrient mix, without supplementation (Invitrogen, Waltham, MA, cat. 11765054), 100 U/mL penicillin-streptomycin (Invitrogen, cat. 15140122), and 2.5% Matrigel (Corning Inc., Corning, NY, cat. 354248) for the first three passages. The 362531-283-R-J2-PDC and 782815-120-R-J1-PDC lines were cultured in 6C/Colon 1B media, which includes advanced DMEM/F-12 (Thermo Fisher Scientific, cat. 12634028), 10 mM HEPES (Thermo Fisher Scientific, cat. 15630080), 1X GlutaMAX supplement (Thermo Fisher Scientific, cat. 35050061), 0.1 mg/mL primocin (InvivoGen, San Diego, CA, cat. ant-pm-2), 10% defined fetal bovine serum, heat inactivated (HyClone Laboratories Inc., Logan, UT, cat. SH30070.03HI), 50% L-WRN conditioned media (ATCC, cat. CRL-3276), 1.25 mM N-Acetyl-L-cysteine (Sigma-Aldrich, cat. A9165), 10 mM nicotinamide (Sigma-Aldrich, cat. N0636), 1X B-27 supplement (Thermo Fisher Scientific, cat. 17504044), 1X N-2 supplement (Thermo Fisher Scientific, cat. 17502048), 50 ng/mL human EGF (Thermo Fisher Scientific, cat. PHG0311), and 10 microM Y-27632 dihydrochloride (Tocris Bioscience, cat. 1254). The K12877-001-R-J1-PDC line was cultured in 6I media, which includes all 6C/Colon 1B media plus 10 ng/mL human FGF-10 (PeproTech, cat. 100-26), 1 ng/mL human FGF-2 (PeproTech, cat. 100-18B), 1 µM prostaglandin E2 (Tocris Bioscience, cat. 2296), […] hydrocortisone (Sigma-Aldrich, cat. H4001), and […] bovine insulin (Sigma-Aldrich, cat. I6634). The K86415-001-R-J1-PDC line was cultured in 6D media, which includes all 6C/Colon 1B media components minus the L-WRN conditioned media. The 485176-168-R4-J1-PDC was cultured in PANC media, which includes all 6C/Colon 1B media plus 100 ng/mL human FGF-10 (PeproTech, cat. 100-26), 500 nM SB-431542 (Selleckchem, cat. S1067), and 10 nM gastrin (Tocris Bioscience, cat. 3006). […]
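Also: spheroids exposed to the agents for 7 days before readout.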
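For viability, T/C in this document: luminescence viability as percent of DMSO vehicle control wells.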

## CCc1c2c(nc3ccc(O)cc13)-c1cc3c(c(=O)n1C2)COC(=O)[C@]3(O)CC + CCn1c(-c2cccnc2C(C)OC)c2c3cc(ccc31)N1CCOC(CC(NC(=O)C(C(C)C)N(C)C(=O)C3(F)CCN(C(=O)C#CC(C)(C)N(C)C)CC3)C(=O)N3CCCC(N3)C(=O)OCC(C)(C)C2)C1
Second compound 0.000949 µM
  IC50: 58.1 nM
Second compound 0.003 µM
  IC50: 32.9 nM
Second compound 0.00949 µM
  IC50: 51.3 nM
Second compound 0.03 µM
  IC50: 60.5 nM
Second compound 0.0949 µM
  IC50: 56.1 nM
Second compound 0.3 µM
  IC50: 44.2 nM
Second compound 0.000949 µM, first compound 0.000949 µM
  viability, T/C: 96.5%
Second compound 0.000949 µM, first compound 0.003 µM
  viability, T/C: 91.6%
Second compound 0.000949 µM, first compound 0.00949 µM
  viability, T/C: 83%
Second compound 0.000949 µM, first compound 0.03 µM
  viability, T/C: 73.6%
Second compound 0.000949 µM, first compound 0.0949 µM
  viability, T/C: 32.9%
Second compound 0.000949 µM, first compound 0.3 µM
  viability, T/C: 18%
Second compound 0.003 µM, first compound 0.000949 µM
  viability, T/C: 112%
Second compound 0.003 µM, first compound 0.003 µM
  viability, T/C: 91.6%
Second compound 0.003 µM, first compound 0.00949 µM
  viability, T/C: 82.5%
Second compound 0.003 µM, first compound 0.03 µM
  viability, T/C: 45.9%
Second compound 0.003 µM, first compound 0.0949 µM
  viability, T/C: 34%
Second compound 0.003 µM, first compound 0.3 µM
  viability, T/C: 16.7%
Second compound 0.00949 µM, first compound 0.000949 µM
  viability, T/C: 101%
Second compound 0.00949 µM, first compound 0.003 µM
  viability, T/C: 99.2%
Second compound 0.00949 µM, first compound 0.00949 µM
  viability, T/C: 76.1%
Second compound 0.00949 µM, first compound 0.03 µM
  viability, T/C: 65%
Second compound 0.00949 µM, first compound 0.0949 µM
  viability, T/C: 35.5%
Second compound 0.00949 µM, first compound 0.3 µM
  viability, T/C: 17.8%
Second compound 0.03 µM, first compound 0.000949 µM
  viability, T/C: 103%
Second compound 0.03 µM, first compound 0.003 µM
  viability, T/C: 90.8%
Second compound 0.03 µM, first compound 0.00949 µM
  viability, T/C: 89%
Second compound 0.03 µM, first compound 0.03 µM
  viability, T/C: 71.8%
Second compound 0.03 µM, first compound 0.0949 µM
  viability, T/C: 35.8%
Second compound 0.03 µM, first compound 0.3 µM
  viability, T/C: 15.7%
Second compound 0.0949 µM, first compound 0.000949 µM
  viability, T/C: 95.1%
Second compound 0.0949 µM, first compound 0.003 µM
  viability, T/C: 93.1%
Second compound 0.0949 µM, first compound 0.00949 µM
  viability, T/C: 84.8%
Second compound 0.0949 µM, first compound 0.03 µM
  viability, T/C: 60.1%
Second compound 0.0949 µM, first compound 0.0949 µM
  viability, T/C: 40.9%
Second compound 0.0949 µM, first compound 0.3 µM
  viability, T/C: 16.4%
Second compound 0.3 µM, first compound 0.000949 µM
  viability, T/C: 90.3%
Second compound 0.3 µM, first compound 0.003 µM
  viability, T/C: 108%
Second compound 0.3 µM, first compound 0.00949 µM
  viability, T/C: 90.3%
Second compound 0.3 µM, first compound 0.03 µM
  viability, T/C: 57.6%
Second compound 0.3 µM, first compound 0.0949 µM
  viability, T/C: 32.5%
Second compound 0.3 µM, first compound 0.3 µM
  viability, T/C: 13.3%

— PubChem BioAssay AID2060909 (Molecular Pharmacology Branch, DTP, NCI, 2025)
